In patent US8501791B2, “1,2,4-thiadiazolium derivatives as melanocortin receptor modulators” (Ortho-McNeil Pharamaceutical, Inc., priority 2001, dated 2013):
pEC50: −log10 of the molar value. Where “and” joins values, the source holds several entries; their conditions need not be identical. Equal values may be shown once.

Tests used:
[1] = system: Food-Deprived Rats (MC-4); assay: Rodent feeding: food intake in food-deprived rats (MC-4); assay type: in vivo, rat; conditions: 10 mg/kg, ip
Experimental: Male Long-Evans rats (180-200 grams) were housed individually and maintained on a once-a-day feeding schedule (i.e. 10 a.m. until 4 p.m.) for five days following quarantine to allow the animals to acclimate to feeding on powdered chow (#5002 PMI Certified Rodent Meal) during the allotted time. The chow was made available in an open jar, anchored in the cage by a wire, with a metal follower covering the food to minimize spillage. Water was available ad-libitum.
Animals were fasted for 18 hours prior to testing. At the end of the fasting period, animals were administered either a test compound or vehicle. Vehicle and test compound were administered either orally (5 mL/kg) 60 minutes prior to the experiment, subcutaneously (1 mL/kg) 30 minutes prior to the experiment, or intraperitoneally (1 mL/kg) 30 minutes prior to the experiment. Test compounds were administered orally as a suspension in aqueous 0.5% methylcellulose-0.4% Tween 80, or intraperitoneally as a solution or suspension in PEG 200; compound concentrations typically ranged from 1 mg/kg to 100 mg/kg, preferably from 10-30 mg/kg. Food intake was measured at 2, 4, and 6 hours after administration by weighing the special jar containing the food before the experiment and at the specified times. Upon completion of the experiment, all animals were given a one-week washout period before re-testing.

[2] = system: human sebocytes; assay: Sebaceous lipid synthesis by sebaceous cells (14C acetate, HPTLC); assay type: cell-based; conditions: seven day treatment
Experimental: Semiconfluent cultures of 3T3 mouse fibroblasts (Swiss Albino mouse, ATCC CCL-92) were treated with mitomycin C (4 μg/ml) for 3 hours, trypsinized and seeded at a density of 2.5×10^5/9.5 cm^2 tissue culture plate in Dulbeccos Minimal Essential Medium (DMEM) containing 10% Colorado Calf Serum, PNC (100 U/ml), STM (100 μg/ml), L glutamine (0.3 mg/ml), sodium pyruvate (1 mM) and nonessential amino acids (100 μM). The cells were incubated at 37° C. for 24 hours prior to their use as a feeder layer for sebocytes.
Human sebocytes were isolated from Dermatome shavings of postoperative pieces of human skin at 0.4-0.8 mm depths (this part of the skin was previously shown to be enriched in sebaceous glands). […] Cells so obtained were filtered through nylon mesh (100μ pore size), centrifuged at 750 RPM, re-suspended in GM and counted. […]
Hormones, mixture of hormones i.e. bovine pituitary extract or compounds to be tested were added to the culture at the beginning of phase III. […] This method relies on visualization of neutral lipids by Nile red and quantitation by reading of fluorescence at 535 nm excitation, 580 nm emission using a plate reader. The lipid synthesis was evaluated by radioactive labeling using ^14C acetate and quantified by Bio Rad Phosphoimager (Molecular Imager, FX) using 4.1 Software. […]

[3] = system: human skin transplanted to the SCID mouse; assay: Human skin-SCID mouse chimera model, sebum production; assay type: in vivo, SCID mouse with human skin graft
Text: Severe combined immunodeficient mice (SCID) provide an invaluable model for skin xenografting. These animals are devoid of both T and B cell immunity. Human skin grafts in SCID mice retain human cellular tissue components including skin immune cells, i.e. Langerhans cells, macrophages and lymphocytes and also part of the engrafted endothelium (Kaufman R., et al., Exp. Dermatol. 1993:2:209-216, 1993). These properties allow for the study of physiological and/or pathological responses of human skin cells to a test compound.
C.B-17 scid/scid mice (Taconic, Germantown, N.Y.) were used for grafting at 5-6 weeks of age. Full thickness human facial skin was shaved to ˜0.4 mm using a Forman Dermatome. The skin shavings were washed 3 times in antibiotics and antimycotics (penicillin, streptomycin, fungizone) (Life technologies) in Dulbecco's Modified Eagle Medium (DMEM, Life Technologies). Elliptical skin ˜2.0-2.5×1.0-1.5 was grafted onto the prepared graft bed and sutured using 4.0 silk. During surgical procedures the mice were anaesthetized using a mixture of Ketaset (0.16 mg/g body weight) and Rompun (8.0 μg/g body weight).
It is well accepted that the wound healing process of the transplanted skin in the SCID mouse takes one month, at which time the human skin can be used for experimental purposes. […] Maximum size of the glands was observed 3 month post transplantation. The glands retained their capability to produce human specific sebum and the glandular tissue expressed human specific markers including MC5-R. Since glands reached their maximum size at 2-3 month post transplantation the effects of inhibitors of sebum secretion was tested at this point.
Mice at 2-3 month post transplantation with human facial skin were used for the studies. The graft area was treated with the test compound at the desired concentration(s) dissolved in polyethylene glycol-ethanol (20 μl/2 cm^2). Controls were treated with vehicle alone. The test compounds were applied daily, excluding weekends. Sebum secretion was determined using Sebutape at 15 days and 30 days following treatment.
The termination of the experiment was determined by preliminary clinical evaluation of sebum production using SEBUTAPE. At this time human skin grafts were excised and representative samples were collected for histological evaluation. More particularly, 2 mm punch biopsies were prepared and used for evaluation of lipid synthesis and total lipid accumulation in the treated tissues.
The collected 2 mm punch biopsies were placed individually into 96 well plates in Krebs buffer and labeled with 10 μCi of ^14C acetate for 3 hours. Following this labeling period the samples were washed in medium and 5 biopsies pooled, weighed, and used for lipid extraction. The lipid extraction and analysis by HPTLC was the same as described for tissue culture derived cells. […]

[4] = system: rabbit adipocytes; conditions: read-out: EC50 lipolytic activity; cited from earlier work
[5] = system: facial nerve compression, whisker movement; assay: In vivo facial nerve compression model; parameters: species or system rat; conditions: positive control s.c., 70 ug/each 48 hr
Text: The ability of test compound to provide neuro-protective or neuro-regenerative effects was investigated in a facial nerve compression model. Facial nerve motor axons arise exclusively from neurons within the pons in a well-defined nucleus. Facial nerve compression results in retrograde reactions proximal to the lesion site and Wallerian degeneration at its distal part, which causes diminished whisker movement on the lesioned side. […] The right facial nerve was exposed and compressed with forceps for 30 sec at its exit from the stylomastoid foramen. The left facial nerve was sham-operated and served as an internal control. […] After recovery from anesthesia, the rats were randomly divided into groups for dosing with vehicle, αMSH or test compound, with 6 animals per group. αMSH (s.c., 70 ug/each 48 hr) was used as a positive control. Test compounds were dosed p.o. at 20 mg/kg bid for 14 days. Restoration of whisker movement was monitored daily after the operation using two criteria: (1) frequency of whisker movement on the lesioned side relative to the opposite side (sham-operated) which served as the baseline control (2) semi-quantitative measurements (0 to 4+) on strength of the whisker muscles, characterized based on observation of the percentage of moved whiskers, muscle tone of whisker muscles, and the position of the nose. For all observations, the experimental design was blind to the behavioral observer. […] The recovery rate of the whisker movement was expressed as percentage of its own internal control (sham-operated), as listed in Table 8.

[6] = biological target: T1, melanocortin MC-4 receptor (Homo sapiens, UniProt P32245); assay: Melanocortin MC-4 Receptor Binding Assay (SPA); conditions: 125I-NDP-melanocyte stimulating hormone
T1 construct: purchased Receptor Biology Inc
Experimental: Radioactive ligand ^125I-NDP-melanocyte stimulating hormone [NEN, 2000 Ci/mmol] was added to each well (48.54 per well, […] final concentration). The plate was then sealed and let stand for 16 hr at 25° C. NDP-Melanocyte stimulating hormone peptide and α-melanocyte stimulating hormone peptide [purchased from Palomar Research Inc, 1 μM] were used as reference inhibitor compounds to define non-specific binding (N). Total binding (T) was defined using 30% DMSO-50 mM HEPES, pH 7.4 buffer. Bound radioactivity for each well (Y), measured at counts per minute (cpm) was measured in a TopCount [Packard, Calif.]. Percent inhibition was calculated as: […]

[7] = 30 Day Treatment, topical 0.01%
[8] = 30 Day Treatment, topical 0.05%
[9] = human sebaceous lipids, 11 Day Treatment, topical 0.01%
[10] = human sebaceous lipids, 11 Day Treatment, topical 0.1%
[11] = human sebaceous lipids, 11 Day Treatment, topical 0.5%

T1 sequence (P32245 whole entry): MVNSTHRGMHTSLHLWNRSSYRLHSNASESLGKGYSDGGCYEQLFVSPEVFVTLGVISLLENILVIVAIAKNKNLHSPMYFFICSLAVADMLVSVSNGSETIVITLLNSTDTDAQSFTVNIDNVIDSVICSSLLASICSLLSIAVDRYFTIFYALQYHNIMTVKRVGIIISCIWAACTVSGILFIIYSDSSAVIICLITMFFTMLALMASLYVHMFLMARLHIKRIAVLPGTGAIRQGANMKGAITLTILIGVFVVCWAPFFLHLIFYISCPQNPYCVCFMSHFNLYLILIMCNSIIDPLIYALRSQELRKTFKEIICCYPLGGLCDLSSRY

c1ccc(CNc2nc(-c3ccccc3)[n+](-c3ccccc3)s2)cc1 [Compound 84]
Change in Food Intake 2-6 hrs (%) [1]: −24.5% and −17.8%

COc1ccccc1-c1nc(Nc2ccccc2)s[n+]1-c1ccccc1OC.[Br-] [Compound 74, 2-(2-methoxyphenyl)-3-(2-methoxyphenyl)-5-phenylamino-[1,2,4]-thiadiazol-2-ium]
lipid synthesis, radioactively labeled lipids separated by HPTLC [2]: inhibition of squalene, cholesterol esters and wax esters
lipid granules in sebocyte cultures, visual ([2]; stained cell cultures): complete disappearance of lipid granules
% Inh @ 0.01% Cholesterol Ester, Lipid Accumulation [3, 7]: 44%
% Inh @ 0.01% Cholesterol, Lipid Accumulation [3, 7]: 33%
% Inh @ 0.01% Cholesterol, Sebaceous Lipid Synthesis [3, 7]: 33%
% Inh @ 0.01% Squaline, Lipid Accumulation [3, 7]: 82%
% Inh @ 0.01% Squaline, Sebaceous Lipid Synthesis [3, 7]: 80%
% Inh @ 0.01% Triglycerides, Lipid Accumulation [3, 7]: 75%
% Inh @ 0.01% Triglycerides, Sebaceous Lipid Synthesis [3, 7]: 75%
% Inh @ 0.01% Wax Esters, Lipid Accumulation [3, 7]: 86%
% Inh @ 0.01% Wax Esters, Sebaceous Lipid Synthesis [3, 7]: 86%
% Inh @ 0.05% Cholesterol Ester, Lipid Accumulation [3, 8]: 21%
% Inh @ 0.05% Cholesterol, Lipid Accumulation [3, 8]: 82%
% Inh @ 0.05% Cholesterol, Sebaceous Lipid Synthesis [3, 8]: 82%
% Inh @ 0.05% Squaline, Lipid Accumulation [3, 8]: 73%
% Inh @ 0.05% Squaline, Sebaceous Lipid Synthesis [3, 8]: 90%
% Inh @ 0.05% Triglycerides, Lipid Accumulation [3, 8]: 90%
% Inh @ 0.05% Triglycerides, Sebaceous Lipid Synthesis [3, 8]: 90%
% Inh @ 0.05% Wax Esters, Lipid Accumulation [3, 8]: 93%
% Inh @ 0.05% Wax Esters, Sebaceous Lipid Synthesis [3, 8]: 93%
total sebaceous lipid accumulation and de novo synthesis of sebaceous lipids ([3]; 30 days of topical treatment with 0.05% and 0.01% solution): significantly decreased
% Inh @ 0.01% Squalene [3, 9]: 0%
% Inh @ 0.01% Triglycerides [3, 9]: 0%
% Inh @ 0.01% W/E [3, 9]: 25%
% Inh @ 0.1% Squalene [3, 10]: 70%
% Inh @ 0.1% Triglycerides [3, 10]: 50%
% Inh @ 0.1% W/E [3, 10]: 80%
% Inh @ 0.5% Squalene [3, 11]: 0%
% Inh @ 0.5% Triglycerides [3, 11]: 0%
% Inh @ 0.5% W/E [3, 11]: 10%

α-MSH
pEC50 [4]: 8.43
Percent Recovery of whisker movement D9 ([5]; D9): 2.0 ± 2.8%
Percent Recovery of whisker movement D10 ([5]; D10): 24.6 ± 15.8%
Percent Recovery of whisker movement D11 ([5]; D11): 60.1 ± 19.3%
Percent Recovery of whisker movement D12 ([5]; D12): 93.8 ± 14.0%
Percent Recovery of whisker movement D13 ([5]; D13): 98.1 ± 5.3%
Percent Recovery of whisker movement D14 ([5]; D14): 100 ± 0.0%

COc1ccccc1-[n+]1sc(Nc2ccc(Cl)cc2)nc1-c1ccc(C)cc1 [Compound 70]
IC50 [6]: 566 nM
